What all share (assay): Inhibition Assay
One experiment deals with T1, Papain (Carica papaya, UniProt P00784).
T1 sequence (P00784 whole entry): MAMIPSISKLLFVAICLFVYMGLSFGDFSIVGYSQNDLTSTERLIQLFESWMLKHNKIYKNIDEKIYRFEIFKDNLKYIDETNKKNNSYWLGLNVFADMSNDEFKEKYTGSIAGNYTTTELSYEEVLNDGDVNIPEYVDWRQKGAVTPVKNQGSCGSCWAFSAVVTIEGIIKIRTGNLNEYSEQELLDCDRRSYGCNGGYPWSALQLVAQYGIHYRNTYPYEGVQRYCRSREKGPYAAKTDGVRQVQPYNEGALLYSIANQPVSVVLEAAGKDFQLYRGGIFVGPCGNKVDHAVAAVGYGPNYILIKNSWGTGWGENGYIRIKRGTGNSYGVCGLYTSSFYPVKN
The conditions noted are these: pH 6.5; 25 °C. The method, then:
Papain enzyme activities were determined by spectrophotometric detection of the product p-nitroaniline at 25 C in a a multicell holder (parallel measurements for each single inhibitor determination) at a wavelength of 405 nm.

The next experiment has as its target Procathepsin L (Bos taurus, UniProt P25975). Particulars: pH 6; 37 °C. The protocol: (§1) Cathepsin enzyme activities were calculated from kinetic measurements performed by fluorimetric detection of the product 7-amino-4-methylcoumarin at 37 C in a stirred cuvette. The wavelengths for excitation and emission were 360nm and 440nm.
A further experiment concerns the target Cathepsin S (Homo sapiens, UniProt P25774). Particulars: pH 6.5; 37 °C. The method, then: as §1
Another experiment deals with T2, Cathepsin K (Homo sapiens, UniProt P43235).
T2 sequence (P43235 whole entry): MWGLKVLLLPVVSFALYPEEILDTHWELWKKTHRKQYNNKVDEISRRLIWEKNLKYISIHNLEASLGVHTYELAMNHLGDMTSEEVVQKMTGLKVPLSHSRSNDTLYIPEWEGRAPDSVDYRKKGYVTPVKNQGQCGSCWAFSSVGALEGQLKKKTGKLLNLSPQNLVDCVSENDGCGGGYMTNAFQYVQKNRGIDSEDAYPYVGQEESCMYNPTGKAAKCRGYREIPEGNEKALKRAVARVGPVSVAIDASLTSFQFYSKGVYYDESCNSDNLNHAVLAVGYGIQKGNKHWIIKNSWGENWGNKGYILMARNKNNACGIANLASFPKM
Particulars: pH 5; 37 °C. The method, then: as §1

Chain of Cathepsin S (P25774 whole entry): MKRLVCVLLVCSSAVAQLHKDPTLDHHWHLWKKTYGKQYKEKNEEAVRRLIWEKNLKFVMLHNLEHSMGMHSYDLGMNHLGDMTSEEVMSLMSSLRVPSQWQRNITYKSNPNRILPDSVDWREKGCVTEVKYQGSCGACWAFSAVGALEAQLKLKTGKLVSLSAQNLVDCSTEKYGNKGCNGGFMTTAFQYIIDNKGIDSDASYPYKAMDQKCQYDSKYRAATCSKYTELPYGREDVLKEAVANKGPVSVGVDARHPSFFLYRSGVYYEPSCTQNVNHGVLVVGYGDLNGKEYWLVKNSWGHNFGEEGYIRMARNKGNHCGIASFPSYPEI
Chain of Procathepsin L (P25975 whole entry): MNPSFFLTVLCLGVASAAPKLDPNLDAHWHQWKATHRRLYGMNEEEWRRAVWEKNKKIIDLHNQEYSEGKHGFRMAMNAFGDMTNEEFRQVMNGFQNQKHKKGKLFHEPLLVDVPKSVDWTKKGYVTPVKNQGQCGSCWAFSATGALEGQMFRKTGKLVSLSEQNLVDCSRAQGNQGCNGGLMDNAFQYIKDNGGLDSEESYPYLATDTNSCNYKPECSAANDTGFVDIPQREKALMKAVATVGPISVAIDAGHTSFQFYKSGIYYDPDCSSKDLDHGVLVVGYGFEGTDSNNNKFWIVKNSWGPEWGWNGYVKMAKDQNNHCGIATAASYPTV

As for `CSCCC(C#N)NC(=O)[C@H](Cc1ccccc1)NC(=O)OC(C)(C)C` (stereo partly specified) [Dipeptide nitrile, 7], the Ki (in general, the equilibrium dissociation constant of an inhibitor or competing ligand from its target) at Papain amounted to 250 nM; at Procathepsin L, 270 nM; on Cathepsin S, 650 nM; on Cathepsin K, 3600 nM.
`C[S+](C)CCC(C#N)NC(=O)[C@H](Cc1ccccc1)NC(=O)OC(C)(C)C` (stereo partly specified) [Dipeptide nitrile, 8]: the Ki on Procathepsin L turned out to be 520 nM; on Cathepsin S, 730 nM; at Cathepsin K, 3800 nM.
`CC(C)(C)OC(=O)N[C@@H](Cc1ccccc1)C(=O)N[C@H](C#N)CC#N` [Dipeptide nitrile, 10]: the Ki worked out at 1100 nM on Papain, 900 nM on Procathepsin L, 840 nM at Cathepsin S and 6300 nM at Cathepsin K.

Values taken from BindingDB's records for doi:10.3109/14756360902797328 (Rheinische Friedrich-Wilhelms-Universitat Bonn, 2009).
